In US20170100489A1, “POLYETHYLENE GLYCOL-MODIFIED INTEGRIN BLOCKER HM-3 AND USE THEREOF” (HANMEI XU, priority 2012, published 2017):
Like-named read-outs stand apart in the source and are kept apart here. Each block holds one molecule with its values, some of them ahead of it. Where a SMILES comes first, the peptide text is derived from it. Where no end group is shown, it is not given here. mPEG‑SC20k = methoxy polyethylene glycol-succinimidyl-carbonate, 20000 Da

Tests used:
[1] = system: human pancreatic cancer SW-1990 xenograft tumors; assay: Tumor growth inhibition, SW-1990 xenograft
Experimental: Picked the tumor tissue of vigorous growth and was cut into pieces of about 1.5 mm^3. Under sterile conditions, the tumor tissue was inoculated subcutaneously on the right of nude mice. Tumor diameter was measured with a Vernier caliper. The animals which had tumors with a size of 100-200 mm^3 were randomly divided into groups. The effect of polypeptide on anti-tumor was dynamically observed through the method of measuring tumor diameter. The times of measuring tumor diameter were once 2 days, and meantime, weighed mice. The mice in experimental group were infused polypeptide through tail vein, once 3 days. The mice in the placebo group were injected saline with the same volume.
(§1) a, b respectively represent the length and width. According to the result of measurement, calculate the relative tumor volume. Evaluation of antitumor activity is relative tumor proliferation rate T/C(%). The formula is as follows: T/C(%)^=TRTV/CRTV×100%
TRTV:Treatment group RTV; CRTV: negative control group RTV

[2] = system: human thyroid cancer SW-579 xenograft tumors; assay: Tumor growth inhibition, SW-579 xenograft; conditions: for Final weight / Rate of inhibiting tumors / Tumor weight: Once 1 day
Experimental: (§2) Picked the tumor tissue of vigorous growth and was cut into pieces of about 1.5 mm^3. Under sterile conditions, the tumor tissue was inoculated subcutaneously on the right of nude mice. Tumor diameter was measured with a vernier caliper. The animals which had tumors with a size of 100-200 mm^3 were randomly divided into groups. The effect of polypeptide on anti-tumor was dynamically observed through the method of measuring tumor diameter. The times of measuring tumor diameter were once 2 days, and meantime, weighed mice. The mice in experimental group were infused polypeptide through tail vein, once 3 days. The mice in the placebo group were injected saline with the same volume. Tumor volume formula:
as §1

[3] = system: human nasopharyngeal cancer CNE xenograft tumors; assay: Tumor growth inhibition, CNE xenograft
Experimental: as §2
a, b respectively represent the length and width. According to the result of measurement, calculate the relative tumor volume. Evaluation of antitumor activity is relative tumor proliferation rate T/C(%). The formula is as follows: T/C(%)^−TRTV/CRTV×100%

[4] = system: human ovarian cancer SK-OV-3 xenograft tumors; assay: Tumor growth inhibition, SK-OV-3 xenograft
Experimental: Human ovarian cancer SK-OV-3 cell lines in logarithmic growth phase were picked, and made into 5×10^7/ml cell suspension of under sterile conditions, and then 0.1 ml suspension was inoculated subcutaneously at the right armpit of nude mice. Tumor diameter was measured with a vernier caliper. The animals which had tumors with a size of 100-200 mm^3 were randomly divided into groups. The effect of polypeptide on anti-tumor was dynamically observed through the method of measuring tumor diameter. The times of measuring tumor diameter were once 2 days, and meantime, weighed mice. The mice in experimental group were infused polypeptide through tail vein. The mice in the placebo group were injected saline with the same volume, once 1 day; Cisplatin group: 10 mg/kg, once 1 week; Endostar group: 2.5 mg/kg, once 1 day; The groups of high, intermediate and low polypeptide: 6, 3, 1.5 mg/kg, respectively, once 1 day. After administration, all mice were sacrificed. Stripped the tumors and weighed.

[5] = system: human testicular cancer 5637 xenograft tumors; assay: Tumor growth inhibition, 5637 xenograft
Experimental: (§3) Human testicular cancer 5637 cell lines in logarithmic growth phase were picked, and made into 5×10^7/ml cell suspension of under sterile conditions, and then 0.1 ml suspension was inoculated subcutaneously at the right armpit of nude mice. Tumor diameter was measured with a vernier caliper. The animals which had tumors with a size of 100-200 mm^3 were randomly divided into groups. The effect of polypeptide on anti-tumor was dynamically observed through the method of measuring tumor diameter. The times of measuring tumor diameter were once 2 days, and meantime, weighed mice. The mice in experimental group were infused polypeptide through tail vein. […] After administration, all mice were sacrificed. Stripped the tumors and weighed.

[6] = system: human prostate cancer DU-145 xenograft tumors; assay: Tumor growth inhibition, DU-145 xenograft
Experimental: Human prostate cancer DU-145 cell lines in logarithmic growth phase were picked, and made into 5×10^7/ml cell suspension of under sterile conditions, and then 0.1 ml suspension was inoculated subcutaneously at the right armpit of nude mice. Tumor diameter was measured with a vernier caliper. The animals which had tumors with a size of 100-200 mm^3 were randomly divided into groups. The effect of polypeptide on anti-tumor was dynamically observed through the method of measuring tumor diameter. The times of measuring tumor diameter were once 2 days, and meantime, weighed mice. The mice in experimental group were infused polypeptide through tail vein. The mice in the placebo group were injected saline with the same volume, once 1 day; Cisplatin group: 10 mg/kg, once 1 week; Endostar group: 2.5 mg/kg, once 1 day; The groups of high, intermediate and low polypeptide: 6, 3, 1.5 mg/kg, respectively, once 1 day. After administration, all mice were sacrificed. Stripped the tumors and weighed.

[7] = system: sarcoma HT-1080 xenograft tumors; assay: Tumor growth inhibition, HT-1080 xenograft
Experimental: Tumor diameter was measured with a vernier caliper. […] After administration, all mice were sacrificed. Stripped the tumors and weighed.

[8] = system: human breast cancer MDA-MB-231 xenograft tumors; assay: Tumor growth inhibition, MDA-MB-231 xenograft
Experimental: Picked the tumor tissue of vigorous growth and was cut into pieces of about 1.5 mm^3. Under sterile conditions, the tumor tissue was inoculated subcutaneously on the right of nude mice. Tumor diameter was measured with a vernier caliper. The animals which had tumors with a size of 100-200 mm^3 were randomly divided into groups. The effect of polypeptide on anti-tumor was dynamically observed through the method of measuring tumor diameter. The times of measuring tumor diameter were once 2 days, and meantime, weighed mice. The mice in experimental group were infused polypeptide through tail vein, once 3 days. The mice in the placebo group were injected saline with the same volume. Tumor volume formula: TV=0.52×a×b^2
as §1
(§4) TRTV: Treatment group RTV; CRTV: negative control group RTV

[9] = system: human lung cancer H460 xenograft tumors; assay: Tumor growth inhibition, H460 xenograft
Experimental: as §2, §1, §4

[10] = system: human cervical cancer HeLa xenograft tumors; assay: Tumor growth inhibition, HeLa xenograft
Experimental: Human cervical cancer HeLa cell lines in logarithmic growth phase were picked, and made into 5×10^7/ml cell suspension of under sterile conditions, and then 0.1 ml suspension was inoculated subcutaneously at the right armpit of nude mice. Tumor diameter was measured with a vernier caliper. The animals which had tumors with a size of 100-200 mm^3 were randomly divided into groups. The effect of polypeptide on anti-tumor was dynamically observed through the method of measuring tumor diameter. The times of measuring tumor diameter were once 2 days, and meantime, weighed mice. The mice in experimental group were infused polypeptide through tail vein. The mice in the placebo group were injected saline with the same volume, once 1 day; Taxol group: 10 mg/kg, once 1 week; Endostar group: 2.5 mg/kg, once 1 day; The groups of high, intermediate and low polypeptide: 6, 3, 1.5 mg/kg, respectively, once 1 day. After administration, all mice were sacrificed. Stripped the tumors and weighed.

[11] = system: human kidney cancer A498 xenograft tumors; assay: Tumor growth inhibition, A498 xenograft
Experimental: Human kidney cancer A498 cell lines in logarithmic growth phase were picked and made into 5×10^7/ml cell suspension of under sterile conditions, and then 0.1 ml suspension was inoculated subcutaneously at the right armpit of nude mice. Tumor diameter was measured with a vernier caliper. The animals which had tumors with a size of 100-200 mm^3 were randomly divided into groups. The effect of polypeptide on anti-tumor was dynamically observed through the method of measuring tumor diameter. The times of measuring tumor diameter were once 2 days, and meantime, weighed mice. The mice in experimental group were infused polypeptide through tail vein. The mice in the placebo group were injected saline with the same volume, once 1 day; Taxol group: 10 mg/kg, once 1 week; Endostar group: 2.5 mg/kg, once 1 day; The groups of high, intermediate and low polypeptide: 6, 3, 1.5 mg/kg, respectively, once 1 day. After administration, all mice were sacrificed. Stripped the tumors and weighed.

[12] = Pharmacokinetics of mPEG-SC20k-HM-3 and HM-3 in rats (plasma concentration by ELISA)
Experimental: SD rats were randomly divided into six groups with the same number for male and female. Take three groups were administered intravenously integrin antagonist polypeptide with a high dose of 52 mg/kg (equivalent to HM-3 4.2 mg/kg), an intermediate dose of 26 mg/kg (equivalent to HM-3 2.1 mg/kg), a low-dose of 13 mg/kg (equivalent to HM-3 1.05 mg/kg). The other 3 groups were injected HM-3 with a high dose of 4.2 mg/kg, an intermediate dose of 2.1 mg/kg, a low doses of 1.05 mg/kg. Collected whole blood 0.5 ml once from the orbital venous plexus after 0.5 h, 1 h, 2 h, 3 h, 6 h, 12 h, 24 h, 48 h, 72 h, 96 h, 108 h, 132 h of drug administration, and applied heparin to get the effect of anti-coagulation. 12000 rpm/2 min centrifuged plasma. Draw supernatant 200 μl and 80° C. preheated PBS (0.05 M pH7.4) buffer 600 μl and mixed. Bath in the 80° C. water for 30 min. Centrifuged 2 min at 12000 rpm, and collected the supernatant, and stored in the condition of −20° C. Dissolved at room temperature, measured integrin antagonist peptide plasma concentration by ELISA.

[13] = system: human gallbladder cancer GBC-SD xenograft tumors; assay: Tumor growth inhibition, GBC-SD xenograft
Experimental: Human gallbladder cancer GBC-SD cell lines in logarithmic growth phase were picked and made into 5×10^7/ml cell suspension of under sterile conditions, and then 0.1 ml suspension was inoculated subcutaneously at the right armpit of nude mice. Tumor diameter was measured with a vernier caliper. The animals which had tumors with a size of 100-200 mm^3 were randomly divided into groups. The effect of polypeptide on anti-tumor was dynamically observed through the method of measuring tumor diameter. The times of measuring tumor diameter were once 2 days, and meantime, weighed mice. The mice in experimental group were infused polypeptide through tail vein. The mice in the placebo group were injected saline with the same volume, once 1 day; Taxol group: 10 mg/kg, once 1 week; Endostar group: 2.5 mg/kg, once 1 day; The groups of high, intermediate and low polypeptide: 6, 3, 1.5 mg/kg, respectively, once 1 day. After administration, all mice were sacrificed. Stripped the tumors and weighed.

[14] = Immunogenicity assay, antibody titers in serum by ELISA; conditions: 3.0 mg/kg iv once a day, 8 weeks; FIG. 2
Experimental: BALB/c white mice were randomly divided into 2 groups, and the same number of male and female. 36 mg/kg mPEG-SC20k-HM-3 and 3.0 mg/kg HM-3 were administrated intravenously through tail vein, respectively, lasting 8 weeks, and collected blood from the orbital venous plexus once a week during 1-12 weeks. Centrifuged 2 min at 12000 rpm, collected the supernatant, and stored in the condition of −20° C. Dissolved at room temperature, 0.1 ml was used to measure antibody titers in serum by ELISA.
Administration: once a day, 6 rats (male, 3; female, 3)
Administration: once two days, 6 rats (male, 3; female, 3)

[15] = system: human cancer 5637 xenograft tumors; assay: Tumor growth inhibition, 5637 xenograft
Experimental: as §3

[16] = system: human esophageal cancer Ec109 xenograft tumors; format: in vivo, nude mice
Experimental: Tumor diameter was measured with a vernier caliper. […] Tumor volume formula: […]
a, b respectively represent the length and width. […] The formula is as follows: […]
TRTV: Treatment Group RTV; CRTV: Negative Control Group RTV

[17] = system: human gastric cancer MGC803 xenograft tumors; assay: Tumor growth inhibition, MGC803 xenograft
Experimental: as §2, §1, §4

[18] = system: human endometrial cancer HHUA xenograft tumors; assay: Tumor growth inhibition, HHUA xenograft
Experimental: Human endometrial cancer HHUA cell lines in logarithmic growth phase were picked, and made into 5×10^7/ml cell suspension of under sterile conditions, and then 0.1 ml suspension was inoculated subcutaneously at the right armpit of nude mice. Tumor diameter was measured with a vernier caliper. The animals which had tumors with a size of 100-200 mm^3 were randomly divided into groups. The effect of polypeptide on anti-tumor was dynamically observed through the method of measuring tumor diameter. The times of measuring tumor diameter were once 2 days, and meantime, weighed mice. The mice in experimental group were infused polypeptide through tail vein. The mice in the placebo group were injected saline with the same volume, once 1 day; Taxol group: 10 mg/kg, once 1 week; Endostar group: 2.5 mg/kg, once 1 day; The groups of high, intermediate and low polypeptide: 6, 3, 1.5 mg/kg, respectively, once 1 day. After administration, all mice were sacrificed. Stripped the tumors and weighed.

[19] = system: human bladder cancer HT1376 xenograft tumors; assay: Tumor growth inhibition, HT1376 xenograft
Experimental: Human bladder cancer HT1376 cell lines in logarithmic growth phase were picked, and made into 5×10^7/ml cell suspension of under sterile conditions, and then 0.1 ml suspension was inoculated subcutaneously at the right armpit of nude mice. Tumor diameter was measured with a vernier caliper. The animals which had tumors with a size of 100-200 mm^3 were randomly divided into groups. The effect of polypeptide on anti-tumor was dynamically observed through the method of measuring tumor diameter. The times of measuring tumor diameter were once 2 days, and meantime, weighed mice. The mice in experimental group were infused polypeptide through tail vein. The mice in the placebo group were injected saline with the same volume, once 1 day; Taxol group: 10 mg/kg, once 1 week; Endostar group: 2.5 mg/kg, once 1 day; The groups of high, intermediate and low polypeptide: 6, 3, 1.5 mg/kg, respectively, once 1 day. After administration, all mice were sacrificed. Stripped the tumors and weighed.

[20] = system: human colon cancer HT-29 xenograft tumors; assay: Tumor growth inhibition, HT-29 xenograft
Experimental: Human colon cancer HT-29 cell lines in logarithmic growth phase were picked, and made into 5×10^7/ml cell suspension of under sterile conditions, and then 0.1 ml suspension was inoculated subcutaneously at the right armpit of nude mice. Tumor diameter was measured with a vernier caliper. The animals which had tumors with a size of 100-200 mm^3 were randomly divided into groups. The effect of polypeptide on anti-tumor was dynamically observed through the method of measuring tumor diameter. The times of measuring tumor diameter were once 2 days, and meantime, weighed mice. The mice in experimental group were infused polypeptide through tail vein. The mice in the placebo group were injected saline with the same volume, once 1 day; Taxol group: 10 mg/kg, once 1 week; Endostar group: 2.5 mg/kg, once 1 day; The groups of high, intermediate and low polypeptide: 6, 3, 1.5 mg/kg, respectively, once 1 day. After administration, all mice were sacrificed. Stripped the tumors and weighed.

integrin ανβ3 = target: T1, integrin ανβ3 (human, UniProt P06756 31-1048; P05106 27-788); assay: flow cytometry, FITC-labeled peptide on Bel-7402 and MCF-7 cells pre-incubated with function-blocking anti-integrin antibodies
T1 construct: whole, on cells; Endogenous integrin on Bel-7402 and MCF-7 cells; also called alpha v beta 3
T1 sequence (P06756 31-1048, chain 1 of 2): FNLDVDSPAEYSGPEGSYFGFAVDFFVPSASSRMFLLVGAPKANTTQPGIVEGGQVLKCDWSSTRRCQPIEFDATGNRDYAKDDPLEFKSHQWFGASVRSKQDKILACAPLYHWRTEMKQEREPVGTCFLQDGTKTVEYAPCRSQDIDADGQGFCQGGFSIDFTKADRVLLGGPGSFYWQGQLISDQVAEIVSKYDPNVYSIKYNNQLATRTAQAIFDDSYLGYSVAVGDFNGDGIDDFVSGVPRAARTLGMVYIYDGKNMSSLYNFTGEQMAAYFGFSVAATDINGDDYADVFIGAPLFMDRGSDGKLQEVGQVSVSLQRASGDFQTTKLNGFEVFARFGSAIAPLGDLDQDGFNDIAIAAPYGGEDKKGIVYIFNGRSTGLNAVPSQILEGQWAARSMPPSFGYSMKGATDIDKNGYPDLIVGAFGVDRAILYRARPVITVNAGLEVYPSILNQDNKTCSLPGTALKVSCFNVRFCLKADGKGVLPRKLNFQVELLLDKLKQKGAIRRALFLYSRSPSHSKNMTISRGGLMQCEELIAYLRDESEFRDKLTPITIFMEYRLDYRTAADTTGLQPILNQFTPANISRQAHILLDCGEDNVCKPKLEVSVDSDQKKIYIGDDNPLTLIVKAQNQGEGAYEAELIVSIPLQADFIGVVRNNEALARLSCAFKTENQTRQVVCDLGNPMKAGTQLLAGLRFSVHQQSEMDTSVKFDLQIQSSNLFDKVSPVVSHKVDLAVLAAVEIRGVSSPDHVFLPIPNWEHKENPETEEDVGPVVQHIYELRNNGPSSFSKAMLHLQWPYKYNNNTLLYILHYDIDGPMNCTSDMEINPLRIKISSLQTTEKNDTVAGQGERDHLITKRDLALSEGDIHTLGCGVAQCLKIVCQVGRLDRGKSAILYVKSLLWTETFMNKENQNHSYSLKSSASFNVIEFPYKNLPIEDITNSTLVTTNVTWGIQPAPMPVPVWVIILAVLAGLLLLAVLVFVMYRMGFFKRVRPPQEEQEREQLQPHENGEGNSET
T1 sequence (P05106 27-788, chain 2 of 2): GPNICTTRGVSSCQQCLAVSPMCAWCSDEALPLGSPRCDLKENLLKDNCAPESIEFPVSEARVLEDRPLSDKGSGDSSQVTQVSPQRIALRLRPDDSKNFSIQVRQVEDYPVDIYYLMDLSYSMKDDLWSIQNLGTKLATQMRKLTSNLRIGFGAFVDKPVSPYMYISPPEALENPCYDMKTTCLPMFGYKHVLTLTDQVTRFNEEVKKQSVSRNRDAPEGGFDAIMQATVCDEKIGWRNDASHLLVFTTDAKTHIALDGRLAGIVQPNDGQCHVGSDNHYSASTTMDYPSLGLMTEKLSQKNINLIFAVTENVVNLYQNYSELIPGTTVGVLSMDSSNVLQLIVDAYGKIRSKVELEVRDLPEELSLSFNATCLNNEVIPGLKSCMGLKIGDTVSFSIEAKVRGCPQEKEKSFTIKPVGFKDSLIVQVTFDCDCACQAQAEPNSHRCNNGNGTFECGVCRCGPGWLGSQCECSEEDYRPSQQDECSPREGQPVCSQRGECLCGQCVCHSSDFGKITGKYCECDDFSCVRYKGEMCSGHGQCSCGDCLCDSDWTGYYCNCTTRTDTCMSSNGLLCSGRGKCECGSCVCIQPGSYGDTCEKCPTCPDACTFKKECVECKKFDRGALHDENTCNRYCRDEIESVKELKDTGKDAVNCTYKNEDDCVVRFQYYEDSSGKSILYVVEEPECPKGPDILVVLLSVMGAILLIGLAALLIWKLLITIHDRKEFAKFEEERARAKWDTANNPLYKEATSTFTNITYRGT

integrin α5β1 = target: T2, integrin α5β1 (human, UniProt P08648 42-1049; P05556 21-798); assay: as above
T2 construct: whole, on cells; Endogenous integrin on Bel-7402 and MCF-7 cells; also called alpha 5 beta 1
T2 sequence (P08648 42-1049, chain 1 of 2): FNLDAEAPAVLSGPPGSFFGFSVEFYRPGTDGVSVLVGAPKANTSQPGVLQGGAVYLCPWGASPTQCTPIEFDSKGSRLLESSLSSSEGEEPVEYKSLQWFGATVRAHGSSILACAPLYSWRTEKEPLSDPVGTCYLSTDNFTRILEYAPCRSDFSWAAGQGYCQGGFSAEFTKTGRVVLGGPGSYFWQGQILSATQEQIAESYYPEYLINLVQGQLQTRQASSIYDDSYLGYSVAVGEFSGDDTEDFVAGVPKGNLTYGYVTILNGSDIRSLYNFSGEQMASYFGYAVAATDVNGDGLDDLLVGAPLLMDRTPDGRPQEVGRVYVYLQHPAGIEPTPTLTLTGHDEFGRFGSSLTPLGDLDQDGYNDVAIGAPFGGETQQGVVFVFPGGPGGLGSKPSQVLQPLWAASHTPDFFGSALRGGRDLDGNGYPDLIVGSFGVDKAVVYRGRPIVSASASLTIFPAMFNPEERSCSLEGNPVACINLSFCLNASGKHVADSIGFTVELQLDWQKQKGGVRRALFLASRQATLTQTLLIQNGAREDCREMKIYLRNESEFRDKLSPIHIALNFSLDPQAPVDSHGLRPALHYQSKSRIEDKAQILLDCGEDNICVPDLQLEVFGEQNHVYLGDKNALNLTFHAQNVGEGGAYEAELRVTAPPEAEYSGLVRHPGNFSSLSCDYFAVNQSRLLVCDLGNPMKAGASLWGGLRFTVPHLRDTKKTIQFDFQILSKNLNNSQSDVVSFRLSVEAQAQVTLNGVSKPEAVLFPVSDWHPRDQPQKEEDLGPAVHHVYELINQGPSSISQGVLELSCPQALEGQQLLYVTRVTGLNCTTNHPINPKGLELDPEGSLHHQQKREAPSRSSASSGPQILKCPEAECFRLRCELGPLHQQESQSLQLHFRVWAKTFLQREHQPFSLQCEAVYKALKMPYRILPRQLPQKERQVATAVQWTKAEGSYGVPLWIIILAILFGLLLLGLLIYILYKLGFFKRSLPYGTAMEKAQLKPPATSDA
T2 sequence (P05556 21-798, chain 2 of 2): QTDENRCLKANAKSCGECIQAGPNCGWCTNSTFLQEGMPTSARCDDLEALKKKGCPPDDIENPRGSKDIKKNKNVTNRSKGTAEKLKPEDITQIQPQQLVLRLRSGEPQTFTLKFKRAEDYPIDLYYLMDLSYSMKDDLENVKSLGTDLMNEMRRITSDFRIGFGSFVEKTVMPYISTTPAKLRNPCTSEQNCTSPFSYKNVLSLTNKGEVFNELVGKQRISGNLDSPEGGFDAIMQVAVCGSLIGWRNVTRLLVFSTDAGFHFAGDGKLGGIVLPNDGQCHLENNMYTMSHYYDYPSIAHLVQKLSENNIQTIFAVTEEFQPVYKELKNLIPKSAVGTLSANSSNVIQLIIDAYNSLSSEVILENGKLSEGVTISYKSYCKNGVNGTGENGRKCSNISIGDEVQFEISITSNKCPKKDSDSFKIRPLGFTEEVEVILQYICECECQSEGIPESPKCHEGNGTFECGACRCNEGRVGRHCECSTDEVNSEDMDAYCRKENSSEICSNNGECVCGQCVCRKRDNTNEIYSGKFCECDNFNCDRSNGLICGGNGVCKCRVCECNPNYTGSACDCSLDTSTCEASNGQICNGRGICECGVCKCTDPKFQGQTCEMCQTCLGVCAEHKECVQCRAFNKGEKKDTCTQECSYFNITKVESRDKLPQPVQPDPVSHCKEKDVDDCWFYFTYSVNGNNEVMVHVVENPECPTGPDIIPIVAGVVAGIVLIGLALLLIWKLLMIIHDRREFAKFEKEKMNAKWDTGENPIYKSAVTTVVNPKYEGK

Molecule: O=c1[nH]cc(F)c(=O)[nH]1 [5-Fu, reference compound]
Final weight ([1]; 10 mg/kg, Once 1 day): 22.43 g | Rate of inhibiting tumors ([1]; 10 mg/kg, Once 1 day): 76.68% | Tumor weight ([1]; 10 mg/kg, Once 1 day): 0.323 g | toxicity in experimental animals ([2]; 10 mg/kg): greater toxicity and leads to the weight loss and death | Final weight ([2]; 10 mg/kg): 21.32 g | Rate of inhibiting tumors ([2]; 10 mg/kg): 74.50% | Tumor weight ([2]; 10 mg/kg): 0.320 g

Molecule: N.N.[Cl][Pt][Cl] [Cisplatin, reference compound]
influence on the weight of experimental animals ([3]; 10 mg/kg): significantly affects the weight | Final weight ([3]; 10 mg/kg, Twice 1 week): 22.33 g | Rate of inhibiting tumors ([3]; 10 mg/kg, Twice 1 week): 73.36% | Tumor weight ([3]; 10 mg/kg, Twice 1 week): 0.320 g | Final weight ([4]; 10 mg/kg, Twice 1 week): 22.19 g | Rate of inhibiting tumors ([4]; 10 mg/kg, Twice 1 week): 76.13% | Tumor weight ([4]; 10 mg/kg, Twice 1 week): 0.302 g | Rate of inhibiting tumors ([5]; 10 mg/kg, Twice 1 week): 70.74% | Rate of inhibiting tumors ([6]; 10 mg/kg, Twice a week): 70.60%

Molecule: O=P1(N(CCCl)CCCl)NCCCO1 (stereo not drawn) [Cyclophosphamide]
Final weight ([7]; 15 mg/kg, Once 2 days): 23.85 g | Rate of inhibiting tumors ([7]; 15 mg/kg, Once 2 days): 74.15% | Tumor weight ([7]; 15 mg/kg, Once 2 days): 0.501 g

AUC0-∞ ([12]; SD rats, intravenous): 25.63 mg/L/h | t1/2p ([12]; SD rats, intravenous): 27.66 min | t1/2β ([12]; SD rats, intravenous): 27.6 min | clearance ([12]; both, SD, rat, plasma, iv): 23 mL/min/kg | half-life ([12]; both, SD, rat, plasma, iv): 27.6 min | MRT inf ([12]; both, SD, rat, plasma, iv, MRT0-∞, SD rats): 2.16 min | time of administration at which antibody appeared [14]: third week
Molecule: CC[C@H](C)[C@H](N)C(=O)N[C@H](C(=O)N[C@@H](CCCNC(=N)N)C(=O)N[C@@H](CCCNC(=N)N)C(=O)N[C@@H](C)C(=O)N[C@@H](CC(=O)O)C(=O)N[C@@H](CCCNC(=N)N)C(=O)N[C@@H](C)C(=O)N[C@@H](C)C(=O)N[C@H](C(=O)N1CCC[C@H]1C(=O)NCC(=O)NCC(=O)NCC(=O)NCC(=O)N[C@@H](CCCNC(=N)N)C(=O)NCC(=O)N[C@@H](CC(=O)O)C(=O)O)C(C)C)C(C)C [HM-3, Ile-Val-Arg-Arg-Ala-Asp-Arg-Ala-Ala-Val-Pro-Gly-Gly-Gly-Gly-Arg-Gly-Asp] (H-IVRRADRAAVPGGGGRGD-OH; N-terminus assumed)
Final weight ([3]; 1.5 mg/kg, Once 3 days): 22.85 g | Rate of inhibiting tumors ([3]; 1.5 mg/kg, Once 3 days): 61.03% | Tumor weight ([3]; 1.5 mg/kg, Once 3 days): 0.468 g | Final weight ([8]; 1.5 mg/kg, Once 3 days): 23.54 g | Rate of inhibiting tumors ([8]; 1.5 mg/kg, Once 3 days): 57.14% | Tumor weight ([8]; 1.5 mg/kg, Once 3 days): 0.533 g | Final weight ([1]; 1.5 mg/kg, Once 3 days): 23.10 g | Rate of inhibiting tumors ([1]; 1.5 mg/kg, Once 3 days): 57.94% | Tumor weight ([1]; 1.5 mg/kg, Once 3 days): 0.582 g | Final weight ([9]; 1.5 mg/kg, Once 3 days): 21.11 g | Rate of inhibiting tumors ([9]; 1.5 mg/kg, Once 3 days): 65.42% | Tumor weight ([9]; 1.5 mg/kg, Once 3 days): 0.274 g | Rate of inhibiting tumors ([7]; 1.5 mg/kg, Once 3 days): 59.24% | Tumor weight ([7]; 1.5 mg/kg, Once 3 days): 0.790 g | Final weight ([10]; 1.5 mg/kg, Once 3 days): 23.86 g | Rate of inhibiting tumors ([10]; 1.5 mg/kg, Once 3 days): 57.25% | Tumor weight ([10]; 1.5 mg/kg, Once 3 days): 0.528 g | Final weight ([11]; 1.5 mg/kg, Once 3 days): 20.88 g | Rate of inhibiting tumors ([11]; 1.5 mg/kg, Once 3 days): 54.77% | Tumor weight ([11]; 1.5 mg/kg, Once 3 days): 0.427 g | Rate of inhibiting tumors ([4]; 1.5 mg/kg, Once 3 days): 49.49% | Tumor weight ([4]; 1.5 mg/kg, Once 3 days): 0.639 g | Final weight ([13]; 1.5 mg/kg, Once 3 days): 20.92 g | Rate of inhibiting tumors ([13]; 1.5 mg/kg, Once 3 days): 57.59% | Tumor weight ([13]; 1.5 mg/kg, Once 3 days): 0.450 g | Final weight ([15]; 1.5 mg/kg, Once 3 days): 25.15 g | Rate of inhibiting tumors ([5]; 1.5 mg/kg, Once 3 days): 59.40% | Tumor weight ([5]; 1.5 mg/kg, Once 3 days): 0.82 g | Rate of inhibiting tumors ([16]; 1.5 mg/kg, Once 3 days): 60.57% | Tumor weight ([16]; 1.5 mg/kg, Once 3 days): 0.365 g | Final weight ([17]; 1.5 mg/kg, Once 3 days): 22.37 g | Rate of inhibiting tumors ([17]; 1.5 mg/kg, Once 3 days): 70.40% | Tumor weight ([17]; 1.5 mg/kg, Once 3 days): 0.214 g | Final weight ([18]; 1.5 mg/kg, Once 3 days): 22.85 g | Rate of inhibiting tumors ([18]; 1.5 mg/kg, Once 3 days): 54.49% | Tumor weight ([18]; 1.5 mg/kg, Once 3 days): 0.550 g | Final weight ([2]; 1.5 mg/kg): 22.70 g | Rate of inhibiting tumors ([2]; 1.5 mg/kg): 57.70% | Tumor weight ([2]; 1.5 mg/kg): 0.530 g | Final weight ([19]; 1.5 mg/kg, Once 3 days): 22.30 g | Rate of inhibiting tumors ([19]; 1.5 mg/kg, Once 3 days): 50.49% | Tumor weight ([19]; 1.5 mg/kg, Once 3 days): 0.504 g | Final weight ([6]; 1.5 mg/kg, Once 3 days): 23.64 g | Rate of inhibiting tumors ([6]; 1.5 mg/kg, Once 3 days): 56.36% | Tumor weight ([6]; 1.5 mg/kg, Once 3 days): 0.809 g | Final weight ([20]; 1.5 mg/kg, Once 3 days): 23.15 g | Rate of inhibiting tumors ([20]; 1.5 mg/kg, Once 3 days): 52.59% | Tumor weight ([20]; 1.5 mg/kg, Once 3 days): 0.531 g

Molecule: CC(=O)O[C@H]1C(=O)[C@@]2(C)[C@H]([C@H](OC(=O)c3ccccc3)[C@]3(O)C[C@H](OC(=O)[C@H](O)[C@@H](NC(=O)c4ccccc4)c4ccccc4)C(C)=C1C3(C)C)[C@]1(OC(C)=O)CO[C@@H]1C[C@@H]2O [Taxol, reference compound]
Final weight ([8]; 10 mg/kg, Once 2 days): 23.32 g | Rate of inhibiting tumors ([8]; 10 mg/kg, Once 2 days): 73.05% | Tumor weight ([8]; 10 mg/kg, Once 2 days): 0.335 g | Final weight ([9]; 10 mg/kg, Once 2 days): 19.58 g | Rate of inhibiting tumors ([9]; 10 mg/kg, Once 2 days): 68.77% | Tumor weight ([9]; 10 mg/kg, Once 2 days): 0.248 g | Final weight ([10]; 10 mg/kg, Once 2 days): 23.47 g | Rate of inhibiting tumors ([10]; 10 mg/kg, Once 2 days): 65.37% | Tumor weight ([10]; 10 mg/kg, Once 2 days): 0.428 g | Final weight ([11]; 10 mg/kg, Once 2 days): 21.15 g | Rate of inhibiting tumors ([11]; 10 mg/kg, Once 2 days): 74.32% | Tumor weight ([11]; 10 mg/kg, Once 2 days): 0.242 g | Final weight ([13]; 10 mg/kg, Once 2 days): 20.43 g | Rate of inhibiting tumors ([13]; 10 mg/kg, Once 2 days): 78.13% | Tumor weight ([13]; 10 mg/kg, Once 2 days): 0.232 g | Final weight ([15]; 10 mg/kg, Twice 1 week): 24.46 g | Rate of inhibiting tumors ([5]; 10 mg/kg, Twice 1 week): 70.74% | Tumor weight ([5]; 10 mg/kg, Twice 1 week): 0.590 g | Rate of inhibiting tumors ([16]; 10 mg/kg, Once 2 days): 70.19% | Tumor weight ([16]; 10 mg/kg, Once 2 days): 0.276 g | Final weight ([17]; 10 mg/kg, Once 2 days): 22.05 g | Rate of inhibiting tumors ([17]; 10 mg/kg, Once 2 days): 74.12% | Tumor weight ([17]; 10 mg/kg, Once 2 days): 0.187 g | Final weight ([18]; 10 mg/kg, Twicw 1 week): 22.19 g | Rate of inhibiting tumors ([18]; 10 mg/kg, Twicw 1 week): 75.55% | Tumor weight ([18]; 10 mg/kg, Twicw 1 week): 0.295 g | Final weight ([19]; 10 mg/kg, Once 2 days): 21.65 g | Rate of inhibiting tumors ([19]; 10 mg/kg, Once 2 days): 67.88% | Tumor weight ([19]; 10 mg/kg, Once 2 days): 0.327 g | Final weight ([6]; 10 mg/kg, Twice a week): 23.81 g | Rate of inhibiting tumors ([6]; 10 mg/kg, Twice a week): 70.60% | Tumor weight ([6]; 10 mg/kg, Twice a week): 0.545 g | Final weight ([20]; 10 mg/kg, Once 2 days): 22.84 g | Rate of inhibiting tumors ([20]; 10 mg/kg, Once 2 days): 69.11% | Tumor weight ([20]; 10 mg/kg, Once 2 days): 0.346 g

binding result (integrin ανβ3): binds | binding result (integrin α5β1): binds
B1: mPEG-SC20k-Ile-Val-Arg-Arg-Ala-Asp-Arg-Ala-Ala-Val-Pro-Gly-Gly-Gly-Gly-Arg-Gly-Asp (mPEG-SC20k-HM-3) (peptide)
peptide: {mPEG‑SC20k}-IVRRADRAAVPGGGGRGD
modifications: also: FITC labeled, site not given here
notes: also called integrin antagonist polypeptide
